In brackets after ≈: the same amount, converted by molar mass. Entries after “also recorded” stand apart in the source; their conditions may differ. Like-named read-outs stand apart in the source and are kept apart here. Where no end group is shown, it is not given here.
Experiments:
HDFa cells [1] = test: cells; assay type: cell-based, human
Description: (§1) MCF-7 (Luminal breast cancer), MDA-MB-231 (TNBC), and MCF10A (non-tumor mammary gland epithelial cells) were purchased from the Rio de Janeiro Cell Bank (BCRJ, Rio de Janeiro, RJ, Brazil). HMEC (Primary Mammary Epithelial Cells) and HDFa (Human Dermal Fibroblasts) cell lines were purchased from Gibco (Waltham, MA, USA). MCF-7 and MDA-MB-231 were cultured in an RPMI 1640 medium supplemented with 10% heat-inactivated FBS, 1% glutamine, and 1% antibiotic/antimycotic solution. MCF10A and HMEC were cultured in MEBM medium supplemented with 100 ng/mL cholera toxin, 2.5 mM L-glutamine, 5% horse serum, 10 µg/mL human insulin, 0.5 µg/mL hydrocortisone, and 10 ng/mL EGF. All cells used in this study were incubated at 37 °C under 5% CO2 and checked for authenticity through polymerase chain reaction (PCR) followed by fragment analysis of eight highly polymorphic microsatellite loci (short tandem repeat—STR) plus gender determination with score ≥ 80%.
(§2) Stock solutions of Peptides 1 to 12, doxorubicin, and cisplatin were prepared in PBS (1X). Doxorubicin and cisplatin were stored at −20 °C and the peptide solutions were freshly prepared before each experiment. The final concentration of PBS (1X) in the culture medium was lower than 0.02%. All the negative controls contained this vehicle in the same culturing conditions as previously described.
(§3) Cell viability assay was conducted using the MTT method. For treatments lasting 24 h, the cells were seeded at the density of 2 × 10^4 cells/well into 96-well sterile plates, and for treatments lasting 48 or 72 h, the cell density was 1 × 10^4 cells/well. The following day, cells were treated by applying 200 μL/well of each agent (Peptides 1 to 12, doxorubicin, or cisplatin) at the desired concentration and incubated for the duration of the treatment. Afterward, cells were incubated with 20 μL/well of an MTT solution (5 mg/mL) for 2.5 h. Then, formazan salts were solubilized with 200 μL of DMSO: isopropanol (3:1) and agitated for at least 15 min at room temperature. The absorbance was measured at 570 nm with a spectrophotometer (Molecular devices Spectra Max Plus 384—San Jose, CA, USA), and relative cell viability was calculated. To evaluate the mechanism of cell death, cell cultures were treated with peptides in the presence or absence of 3-methyladenine (3-MA) ([…]), which is an autophagy inhibitor [37]. After treatment, the MTT assay was carried out as previously described.

MDA-MB-231 cells [2] = test: cells; assay type: cell-based, human; conditions: for IC50: Homo sapiens, MDA-MB-231, MTT, range 0.2–2.0 µg/mL, Figure 4, read-out: IC50 (cell viability)
Description: as §1, §2, §3

MCF-7 cells = assay type: cell-based, human; conditions: for cell viability: 1 µg/mL
Description: as §1, §2, §3

HMEC cells = assay type: cell-based, human; conditions: 72 h, 1 µg/mL
Description: as §1, §2, §3

MCF10A cells = assay type: cell-based, human
Description: as §1, §2, §3

MDA-MB-231 cells [3] = test: Cell proliferation assay (BrdU incorporation) in MDA-MB-231; assay type: cell-based, human; conditions: for IC50 (proliferation): range 0.2–1.0 µg/mL
Description: (§4) Cell proliferation was assessed with the BrdU method using the Cell Proliferation ELISA, BrdU (colorimetric) kit from Roche (Basel, Switzerland). Cell seeding and treatments were carried out as presented in Section 4.3. BrdU-labeling (20 μL/well) was added and incubated for 2.5 h. Then, ELISA was performed with an anti-BrdU-POD antibody, followed by washing and substrate solutions. The substrate was then developed for 15 min and the reaction was stopped with HCl (6M). The absorbance was measured at 495 nm with a spectrophotometer (Molecular devices Spectra Max Plus 384—San Jose, CA, USA), and the relative cell proliferation was calculated.

MDA-MB-231 cells [4] = test: LDH release assay; assay type: cell-based, human; conditions: 0–1.0 µg/mL
Description: The CyQUANT LDH Cytotoxicity Assay (Thermo Fisher, Waltham, MA, USA) was employed to determine LDH release as a measure of plasma membrane damage, an important indicator of necrosis and pyroptosis. […] Cell seeding and treatments proceeded as presented in Section 4.3. After treatment incubation, 20 μL of supernatant was transferred to an EIA/RIA plate. The Reaction Mixture (20 μL/well) was added and incubated at room temperature for 30 min in the dark. Afterward, 60 μL/well of the Stop Solution was added and the absorbance of the reaction mixtures was quantified at both 490 nm and 680 nm with a spectrophotometer (Molecular devices Spectra Max Plus 384—San Jose, CA, USA). The absorbance at 680 nm was subtracted from the value at 490 nm, and then relative LDH release was calculated.

zebrafish embryos = test: In vivo zebrafish embryo toxicity study
Description: Transgenic Tg(fli1:EGFP)^y1 zebrafish embryos were raised at 28 °C for 48 h in E3 embryo medium 0.2 mM 1-Phenyl-2-Thiourea (PTU). […] Zebrafish embryos obtained at 48 h post fertilization (hpf), n = 20 embryos/group, were subcutaneously injected with the 3-NAntC peptide at 0.0015, 0.015, 0.15, 75, and 150 mg/mL diluted in E3 embryo medium containing 0.003% 1-phenyl-2-thiourea (PTU) and the embryos were maintained at 28.5 °C. Pictures were taken after 24, 48, and 72 h of peptide exposure and the percentage of live animals, as well as the percentage of live animals with malformations, were visually analyzed.

HDFa cells [5] = test: Cell proliferation assay (BrdU incorporation) in HDFa; assay type: cell-based, human; conditions: 72 hours, range 0.2–1.0 µg/mL
Description: as §4

Question: Which results are given for `COc1cccc2c1C(=O)c1c(O)c3c(c(O)c1C2=O)C[C@@](O)(C(=O)CO)C[C@@H]3O[C@H]1C[C@H](N)[C@H](O)[C@H](C)O1` [Doxorubicin, doxorubicin, reference compound]?
Answer: IC50 (HDFa cells [1]; Homo sapiens, HDFa, 24 hours, MTT, range 0.2–2.0 µg/mL, Figure 4, read-out: IC50 (cell viability)): 1.12 µg/mL (≈ 2.06 µM); IC50 (MDA-MB-231 cells [2]; 48 hours): 0.21 µg/mL (≈ 0.386 µM); IC50 (MDA-MB-231 cells [2]; 72 hours): 0.17 µg/mL (≈ 0.313 µM)

Question: With `CC[C@H](C)[C@H](NC(=O)[C@H](CCSC)NC(=O)[C@H](CCCCN)NC(=O)[C@H](CC(N)=O)NC(=O)[C@H](Cc1ccccc1)NC(=O)[C@H](CCC(N)=O)NC(=O)[C@H](CC(C)C)NC(=O)[C@H](CC(C)C)NC(=O)[C@@H](N)Cc1c[nH]cn1)C(=O)N[C@@H](CCCCN)C(=O)N[C@@H](Cc1ccccc1)C(=O)N[C@@H](CCC(=O)O)C(=O)N[C@H](C(=O)N[C@@H](CCCNC(=N)N)C(=O)N[C@@H](CCCCN)C(=O)N[C@@H](CC(N)=O)C(=O)N[C@@H](C)C(=O)N[C@H](C(=O)N1CCC[C@H]1C(=O)N[C@@H](Cc1ccccc1)C(=O)O)[C@@H](C)CC)[C@@H](C)O` [Peptide 1] as the compound, how does the cell viability (MDA-MB-231 cells [2]; 24 h, 2.5 µg/mL) read?
Answer: 94.4 ± 4.6%

Question: And the cell viability (MDA-MB-231 cells [2]; 48 h, 2.5 µg/mL)?
Answer: 90.7 ± 3.0%

Question: Which results are given for `CSCC[C@H](N)C(=O)N[C@@H](Cc1ccccc1)C(=O)N[C@@H](Cc1ccc(O)cc1)C(=O)N1CCC[C@H]1C(=O)N[C@@H](CC(=O)O)C(=O)N[C@@H](CO)C(=O)N[C@@H](CCCNC(=N)N)C(=O)N[C@@H](CS)C(=O)N[C@@H](CCCNC(=N)N)C(=O)NCC(=O)N1CCC[C@H]1C(=O)N[C@@H](CO)C(=O)N[C@@H](CCC(=O)O)C(=O)N[C@H](C(=O)O)[C@@H](C)O` [Peptide 3-NAntC]?
Answer: IC50 (cell viability) (MCF-7 cells; 24 h): 2.31 µg/mL (≈ 1.4 µM); IC50 (cell viability) (MCF-7 cells; 48 h): 1.49 µg/mL (≈ 0.905 µM); cell viability (MCF-7 cells; 48 h): 54.7 ± 15.5%; IC50 (cell viability) (MCF-7 cells; 72 h): 1.49 µg/mL (≈ 0.905 µM); cell viability (MCF-7 cells; 72 h): 62.9 ± 26.0%; cell viability (HMEC cells): 98.2 ± 13.8%; cell viability (MCF10A cells; 24 h, 2.5 µg/mL): 93.4 ± 7.4%; IC50 (cell viability) (MCF10A cells; 48 h): > 20 µg/mL; cell viability (MCF10A cells; 48 h, 2.5 µg/mL): 80.5 ± 5.3%; cell viability (MCF10A cells; 48 h, 20 µg/mL): 65.9 ± 10.3%; maximum proliferation inhibition (MDA-MB-231 cells [3]; 0.6 µg/mL, 48 h, mean ± SEM): 71.1 ± 27.1%; IC50 (proliferation) (MDA-MB-231 cells [3]; 24h): 0.46 µg/mL (≈ 0.279 µM); IC50 (proliferation) (MDA-MB-231 cells [3]; 48h): 0.46 µg/mL (≈ 0.279 µM); IC50 (proliferation) (MDA-MB-231 cells [3]; 72h): 0.37 µg/mL (≈ 0.225 µM); LDH release (MDA-MB-231 cells [4]; 24 and 48 h treatments): did not consistently increase LDH release; LDH release (MDA-MB-231 cells [4]; 72 h): increase in LDH release; lethality (zebrafish embryos; 150 mg/mL, after 48 and 72 h of treatment, n = 20 embryos/group): 45%; surviving embryos exhibiting malformations (zebrafish embryos; 150 mg/mL, n = 20 embryos/group): 50–60%; lethality and non-lethal events (malformations) (zebrafish embryos; 1.5 to 150 µg/mL and 75 mg/mL, embryos 48 hpf, n = 20 embryos/group, 24, 48, 72 h): no lethal effects; also recorded: did not show lethality or significant non-lethal events (malformations); LD50 (dose that kills 50% of the embryos) (zebrafish embryos; doses up to 150 mg/mL): could not be determined; IC50 (proliferation) (HDFa cells [5]): > 1 µg/mL; IC50 (cell viability) (HDFa cells [1]; 72 h): > 2 µg/mL; cellular viability (HDFa cells [1]; 72 h, 1 µg/mL): higher than 80%; cell viability (MDA-MB-231 cells [2]; 24 h, 0.8 µg/mL): 77.5 ± 15.0%; IC50 (cell viability) (MDA-MB-231 cells [2]; 48 h): 1.44 µg/mL (≈ 0.875 µM); cell viability (MDA-MB-231 cells [2]; 48 h, 0.8 µg/mL): 60.8 ± 17.9%; cell viability (MDA-MB-231 cells [2]; 48 h, 1 µg/mL): 64.6 ± 14.5%; IC50 (cell viability) (MDA-MB-231 cells [2]; 72 h): 0.55 µg/mL (≈ 0.334 µM); cell viability (MDA-MB-231 cells [2]; 72 h, 1 µg/mL): 49.0 ± 17.5%

Question: What does the source list for AIPFYAFY [Peptide 2]?
Answer: IC50 (cell viability) (MCF10A cells; 48 h): > 20 µg/mL; cell viability (MCF10A cells; 48 h, 2.5 µg/mL): 85.7 ± 11.2%; IC50 (cell viability) (MDA-MB-231 cells [2]; 24 h): > 20 µg/mL; cell viability (MDA-MB-231 cells [2]; 24 h, 2.5 µg/mL): 81.6 ± 5.0%; IC50 (cell viability) (MDA-MB-231 cells [2]; 48 h): > 20 µg/mL; cell viability (MDA-MB-231 cells [2]; 48 h, 2.5 µg/mL): 85.0 ± 7.9%

Source: paper PMC11013444, “3-NAntC: A Potent Crotoxin B-Derived Peptide against the Triple-Negative MDA-MB-231 Breast Cancer Cell Line” (Molecules, 2024)
